Source: ChEMBL document CHEMBL2385074, “Structure-activity relationship analysis of bufadienolide-induced in vitro growth inhibitory effects on mouse and human cancer cells” (J Nat Prod, 2013)
Active and inactive are the calls of the source.

Legend:
Format in all cases: functional, cell-based
CT26.WT = test: Cytotoxicity against mouse CT26.WT cells at <= 10 uM after 3 days by MTT assay
Hs 683 = test: Cytotoxicity against human Hs683 cells at <= 10 uM after 3 days by MTT assay
U-373MG ATCC = test: Cytotoxicity against human U373 cells at <= 10 uM after 3 days by MTT assay
PC-3 = test: Cytotoxicity against human PC3 cells at <= 10 uM after 3 days by MTT assay
SK-MEL-28 = test: Cytotoxicity against human SK-MEL-28 cells at <= 10 uM after 3 days by MTT assay
B16-F10 = test: Cytotoxicity against mouse B16F10 cells at <= 10 uM after 3 days by MTT assay
MCF7 = test: Cytotoxicity against human MCF7 cells at <= 10 uM after 3 days by MTT assay
A549 = test: Cytotoxicity against human A549 cells at <= 10 uM after 3 days by MTT assay

Measured: Activity

COC(=O)[C@H]1CC[C@]2(OC=O)[C@@H]3CC[C@@H]4C[C@@H](OC(C)=O)CC[C@]4(C)[C@H]3[C@H](OC(C)=O)C(=O)[C@]12C
inactive: all assays above

COC(=O)[C@H]1[C@@H](O)[C@H]2O[C@]23[C@@H]2CC[C@@H]4C[C@@H](OC(C)=O)CC[C@]4(C)[C@H]2CC[C@]13C
inactive: all assays above

COC(=O)[C@H]1CC[C@]2(O)[C@@H]3CC[C@@H]4C[C@@H](OC(C)=O)CC[C@]4(C)[C@H]3[C@H](OC(C)=O)C(=O)[C@]12C
inactive: all assays above
